Test results from publication PMC9319510, “The Multistage Antimalarial Compound Calxinin Perturbates P. falciparum Ca^2+ Homeostasis by Targeting a Unique Ion Channel” (Pharmaceutics, 2022).

System: T1, voltage T-type Ca2+ channel (α1H; Cav3.1)
T1 construct: gene CACNA1H; α1H cDNA in pcDNA3, expressed in HEK 293 cells; Cav3.1 would be α1G (CACNA1G)
Assay: whole-cell patch clamp
Type: cell-based, Homo sapiens
Settings: HEK-293 cells stably expressing α1H; 5 mM CaCl2 external, pH 7.4; Vh -90 mV; positive control, data not shown

CN1CCN(c2ncc(-c3cc(Cl)cc(Cl)c3Cl)c(N)n2)CC1 [Sipatrigine]
IC50: ~30 µM
